Where a name gives a salt, the structure may show the parent alone.
What was measured:
norepinephrine uptake = assay: Inhibition of norepinephrine uptake in rat brain synaptosomes (hippocampus, 3H norepinephrine); format: biochemical; conditions: for IC50: rat hippocampus synaptosomes, 3H norepinephrine about 10 nM, 37° C., read-out: Norepinephrine IC50 (inhibition of neurotransmitter uptake in synaptosomes); for inhibition of norepinephrine and serotonin uptake (in words): synaptosomes, both transmitters
Procedure: (§1) The action mechanism of a group of therapeutically much used antidepressants must be regarded as being the inhibition of the neuronal uptake of transmitter substances (norepinephrine and/or serotonin). These properties were utilized in biological test models for characterizing potential antidepressants (inhibition of neurotransmitter uptake in rat brain synaptosomes):
(§2) Hippocampus and cortex from rat brain were prepared, and were homogenized in 0.32M sucrose solution. By means of differential centrifuging, synaptosomes were obtained, and these were suspended in buffer solution. The synaptosomes are able actively to take up added neurotransmitter substances (eg. norepinephrine or serotonine) from the surrounding medium. It is possible to antagonize this process by uptake inhibitors, as a function of concentration. Various concentrations of the test substances were added to the synaptosomes, and the mixtures were then incubated with ^3 H norepinephrine (hippocampus) or ^3 H serotonin (cortex) at 37° C. The substrate concentration was about 10 nM. The uptake was terminated by diluting the mixture with ice-cooled buffer solution, after which the synaptosomes were separated off by centrifuging and the ^3 H activity in the sediment was measured. A blank value was determined by incubation at 0° C.
(§3) From the inhibitory values determined for various inhibitor concentrations compared with the control, the mean inhibitory concentration (IC50) was calculated by linear regression following logit-log transformation.

serotonin uptake = assay: Inhibition of serotonin uptake in rat brain synaptosomes (cortex, 3H serotonin); format: biochemical; conditions: 3H serotonin about 10 nM, 37° C., read-out: Serotonin IC50 (inhibition of neurotransmitter uptake in synaptosomes)
Procedure: as §1, §2, §3

| Structure (SMILES) | IC50 (norepinephrine uptake) | IC50 (serotonin uptake) | inhibition of norepinephrine and serotonin uptake (in words) (norepinephrine uptake) |
| --- | --- | --- | --- |
| c1ccc(OCC2(c3ccccc3)CCNCCO2)cc1 (stereo not drawn) [Example 1, 7-phenyl-7-phenoxymethyl-hexahydro-1,4-oxazepine hydrochloride] | 15 nM | 190 nM | – |
| Clc1ccccc1OCC1(c2ccccc2)CCNCCO1 (stereo not drawn) [Example 2, 7-phenyl-7-(2-chlorophenoxymethyl)-hexahydro-1,4-oxazepine hydrochloride] | 2.8 nM | 460 nM | – |
| COc1ccccc1OCC1(c2ccccc2)CCNCCO1 (stereo not drawn) [Example 3, 7-phenyl-7-(2-methoxyphenoxymethyl)-hexahydro-1,4-oxazepine hydrochloride] | 5.9 nM | 190 nM | – |
| Clc1ccc(OCC2(c3ccccc3)CCNCCO2)cc1 (stereo not drawn) [Example 4, 7-phenyl-7-(4-chlorophenoxymethyl)-hexahydro-1,4-oxazepine] | 74 nM | 39 nM | inhibit the uptake of both transmitters at an equally low concentration |
| COc1ccc(OCC2(c3ccccc3)CCNCCO2)cc1.Cl (stereo not drawn) [Example 5, 7-phenyl-7-(4-methoxyphenoxymethyl)-hexahydro-1,4-oxazepine hydrochloride] | 86 nM | 100 nM | inhibit the uptake of both transmitters at an equally low concentration |
| CN1CCOC(COc2ccccc2Cl)(c2ccccc2)CC1 (stereo not drawn) [Example 7] | 98 nM | 300 nM | inhibit the uptake of both transmitters at an equally low concentration |
| CN(C)CCCN1c2ccccc2CCc2ccccc21 [Imipramine, reference compound] | 14 nM | 130 nM | inhibits both norepinephrine uptake and serotonin uptake at low concentration |

Source: patent US4499087A, “7-Phenyl-7-phenoxymethyl-hexahydro-1,4-oxazepines and their use” (BASF Aktiengesellschaft, priority 1982, dated 1985)
